Reference: patent US20210380548A1, “Fused [1,2,4]Thiadiazine Derivatives Which Act as KAT Inhibitors of the MYST Family” (CTxT Pty Limited, priority 2017, published 2021)

Key:
MOZ-KAT6A [1] = molecular target: T1, MOZ-KAT6A (Homo sapiens, UniProt Q92794, A567V); experiment: Revised Acetyltransferase Biochemical Assay, KAT6A; settings: Table 8 (MOZ-KAT6A), 1 μM Acetyl coenzyme A
T1 construct: encoding amino acid residues 507 to 778 (Uniprot Q92794-1) of human KAT6A; made in house; host or cells: E. coli BL21 DE3

[2] = test system: histone H3K23 acetylation (KATE mediated) in U2OS cells; experiment: Histone H3 Lysine 23 Acetylation Biomarker Assay (U2OS); assay type: cell-based; settings: Homo sapiens, 96 well, 24 hours incubation
Method: Compounds may be tested for their ability to inhibit acetylation of the histone H3K23 marker, which is KATE mediated, in the following assay:
The cell line U2OS was seeded at a density of 9,000 cells per well in 96 well optical quality tissue culture plates in RPMI medium and 10% foetal bovine serum, and allowed to adhere for 24 hours under standard culture conditions (37 degree Celsius, 5% CO2). At the end of this period the medium was aspirated. Compound dilutions prepared in DMSO were added to medium, with negative control wells reserved for treatment with DMSO only and 100% inhibition positive controls receiving a potent inhibitor compound (e.g. cas 2055397-28-7, benzoic acid, 3-fluoro-5-(2-pyridinyl)-, 2-[(2-fluorophenyl)sulfonyl]hydrazide) (Baell, J., Nguyen, H. N., Leaver, D. J., Cleary, B. L., Lagiakos, H. R., Sheikh, B. N., Thomas. T. J., Aryl sulfonohydrazides, WO2016198507A1, 2016) at 10 μM concentration and 200 μL transferred to the cells. After incubation for 24 hours, the cells were fixed with 3.7% formaldehyde in PBS for 20 minutes at room temperature, washed (5×5 minutes) with phosphate buffer saline containing 0.1% Tween 20 and blocked with Odyssey blocking buffer (LI-COR, Lincoln, Nebr.) containing 0.1% TritonX100. Anti-H3K23ac specific antibody (Abcam ab177275) in Odyssey blocking buffer containing 0.1% Tween 20 was added and incubated for 16 hours at 4 degree Celsius. After washing (as above), a secondary antibody labelled with Alexa647 dye (LifeTechnologies) and Hoechst 33342 (1 μg/mL, SigmaAldrich) were added for 1 hour incubation. Plates were washed as previously and read on a PerkinElmer Phenix high content imaging platform. Using a Columbus image analysis pipeline, individual nuclei were located by Hoechst 33342 stain and the acetylation level was calculated from the Alexa647-related intensity in the same area. The resulting mean intensity per cell was directly converted to percent inhibition relative to controls on the same plate and the data fitted against a four-parameter logistic model to determine the 50% inhibitory concentration (IC50).

HBO-KAT7 [3] = molecular target: T2, HBO-KAT7 (Homo sapiens, UniProt O95251); experiment: Revised Acetyltransferase Biochemical Assay, KAT7; settings: Table 9 (HBO-KAT7), 1 μM Acetyl coenzyme A
T2 construct: encoding amino acid residues 325 to 611 (Uniprot 095251-1) of human KAT7; made in house; host or cells: E. coli BL21 DE3 RIL

MOF-KAT8 [4] = molecular target: T3, MOF-KAT8 (Homo sapiens, UniProt Q9H7Z6); experiment: Revised Acetyltransferase Biochemical Assay, KAT8
T3 sequence (Q9H7Z6 177-447): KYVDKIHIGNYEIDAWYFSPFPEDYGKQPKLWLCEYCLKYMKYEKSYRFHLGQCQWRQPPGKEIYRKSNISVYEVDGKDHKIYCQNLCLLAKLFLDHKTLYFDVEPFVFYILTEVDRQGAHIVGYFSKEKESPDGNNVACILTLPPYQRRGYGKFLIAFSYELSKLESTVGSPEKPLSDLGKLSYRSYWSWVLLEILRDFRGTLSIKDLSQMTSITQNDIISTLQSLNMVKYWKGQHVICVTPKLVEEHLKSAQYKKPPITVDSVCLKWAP

TIP60-KAT5 [5] = molecular target: T4, TIP60-KAT5 (Homo sapiens, UniProt Q92993); experiment: Revised Acetyltransferase Biochemical Assay, KAT5; settings: 10 nM KAT5, 1 μM AcCoA, 100 nM histone H4, 90 min
T4 construct: encoding amino acid residues 2 to 461 (Uniprot Q92993-2) of human KAT5 isoform; made in house; host or cells: E. coli BL21 DE3

HBO-KAT7 [6] = molecular target: T2, HBO-KAT7; experiment: Acetyltransferase biochemical assay (AlphaScreen), KAT7; settings: Table 3 (HBO-KAT7); 0.4 μM Acetyl coenzyme A, histone H3.1, 40 nM enzyme
TIP60-KAT5 [7] = molecular target: T4, TIP60-KAT5; experiment: Acetyltransferase biochemical assay (AlphaScreen), KAT5; settings: Table 1 (TIP60-KAT5); 0.4 μM Acetyl coenzyme A, histone H4, 10 nM enzyme
MOF-KAT8 [8] = molecular target: T3, MOF-KAT8; experiment: Acetyltransferase biochemical assay (AlphaScreen), KAT8; settings: Table 4 (MOF-KAT8); 0.4 μM Acetyl coenzyme A, histone H4, 20 nM enzyme
MOZ-KAT6A [9] = molecular target: T1, MOZ-KAT6A; experiment: Acetyltransferase biochemical assay (AlphaScreen), KAT6A; settings: Table 2 (MOZ-KAT6A); 10 μM Acetyl coenzyme A, histone H3.1, 5 nM enzyme
[10] = test system: histone H2A.Z Lysine 7 acetylation (TIP60 mediated) in U2OS cells; experiment: H2A.Z Lysine 7 Acetylation Biomarker Assay (384-well, U2OS); assay type: cell-based; settings: Homo sapiens, serum free medium, 24 hours incubation
Method: Compounds may be tested for their ability to inhibit the histone H2A.Z Lysine 7 acetylation marker (which is TIP60 mediated) in the following assay:
The cell line U2OS was seeded at a density of 3,000 cells per well in 384-well optical quality tissue culture plates in RPMI medium supplemented with 10% foetal bovine serum and 10 mM Hepes. The cells were allowed to adhere for 24 hours under standard culture conditions (37 degree Celsius, 5% CO2). At the end of this period the cells were washed with serum free medium. […] After incubation for 24 hours, the cells were fixed with 4% formaldehyde in PBS for 15 minutes at room temperature, washed with phosphate buffer saline and blocked with blocking buffer containing 0.2% TritonX100 and 2% BSA. Anti-H2A.ZK7ac specific antibody (Abcam) in blocking buffer was added and incubated overnight at 4 degree Celsius. After washing, a secondary antibody labelled with AlexaFluor 488 dye (ThermoFisher) and Hoechst 33342 (1 μg/mL, Life Technologies) were added for 2 hours incubation at room temperature. Plates were washed and read on a PerkinElmer Opera HCS high content imaging platform. Using a Columbus image analysis pipeline, individual nuclei were located by Hoechst 33342 stain and the acetylation level was calculated from the AlexaFluor 488-related intensity in the same area. The resulting mean intensity per cell was converted to percent inhibition relative to controls on the same plate and the data fitted against a four-parameter logistic model to determine the 50% inhibitory concentration (IC50).

[11] = test system: histone H3 Lysine 14 acetylation (HBO1 mediated) in U2OS cells; experiment: Histone H3 Lysine 14 Acetylation Biomarker Assay (384-well, U2OS); assay type: cell-based; settings: Homo sapiens, serum free medium, 24 hours incubation
Method: Compounds may be tested for their ability to inhibit acetylation of the histone H3 Lysine 14 (which is HBO1 mediated) marker in the following assay:
The cell line U2OS was seeded at a density of 3,000 cells per well in 384-well optical quality tissue culture plates in RPMI medium supplemented with 10% foetal bovine serum and 10 mM Hepes. The cells were allowed to adhere for 24 hours under standard culture conditions (37 degree Celsius, 5% CO2). At the end of this period the cells were washed with serum free medium. Compound dilutions prepared in DMSO were added to the serum free medium, with negative control wells reserved for treatment with DMSO only and 100% inhibition positive controls receiving a potent inhibitor compound (e.g. (Z)-4-fluoro-N-((3-hydroxyphenyl)sulfonyl)-5-methyl-[1,1′-biphenyl]-3-carbohydrazonic acid) at 10 μM concentration. After incubation for 24 hours, the cells were fixed with 4% formaldehyde in PBS for 15 minutes at room temperature, washed with phosphate buffer saline and blocked with blocking buffer containing 0.2% TritonX100 and 2% BSA. Anti-H3K14ac specific antibody (Cell Signalling Technologies) in blocking buffer was added and incubated overnight at 4 degree Celsius. After washing, a secondary antibody labelled with AlexaFluor 488 dye (ThermoFisher) and Hoechst 33342 (1 μg/mL, Life Technologies) were added for 2 hours incubation at room temperature. Plates were washed and read on a
PerkinElmer Opera HCS high content imaging platform. Using a Columbus image analysis pipeline, individual nuclei were located by Hoechst 33342 stain and the acetylation level was calculated from the AlexaFluor 488-related intensity in the same area. The resulting mean intensity per cell was converted to percent inhibition relative to controls on the same plate and the data fitted against a four-parameter logistic model to determine the 50% inhibitory concentration (IC50).

T2 sequence (O95251 with tags, fused parts or gaps): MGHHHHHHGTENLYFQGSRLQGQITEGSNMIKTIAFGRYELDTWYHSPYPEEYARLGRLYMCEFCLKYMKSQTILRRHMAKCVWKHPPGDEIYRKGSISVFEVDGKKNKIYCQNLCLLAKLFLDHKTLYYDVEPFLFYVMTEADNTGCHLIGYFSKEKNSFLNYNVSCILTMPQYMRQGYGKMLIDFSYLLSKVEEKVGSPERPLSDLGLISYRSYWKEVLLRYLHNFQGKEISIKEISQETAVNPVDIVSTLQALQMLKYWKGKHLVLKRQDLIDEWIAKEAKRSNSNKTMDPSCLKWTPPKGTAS
T4 sequence (Q92993 2-461 isoform Q92993-2): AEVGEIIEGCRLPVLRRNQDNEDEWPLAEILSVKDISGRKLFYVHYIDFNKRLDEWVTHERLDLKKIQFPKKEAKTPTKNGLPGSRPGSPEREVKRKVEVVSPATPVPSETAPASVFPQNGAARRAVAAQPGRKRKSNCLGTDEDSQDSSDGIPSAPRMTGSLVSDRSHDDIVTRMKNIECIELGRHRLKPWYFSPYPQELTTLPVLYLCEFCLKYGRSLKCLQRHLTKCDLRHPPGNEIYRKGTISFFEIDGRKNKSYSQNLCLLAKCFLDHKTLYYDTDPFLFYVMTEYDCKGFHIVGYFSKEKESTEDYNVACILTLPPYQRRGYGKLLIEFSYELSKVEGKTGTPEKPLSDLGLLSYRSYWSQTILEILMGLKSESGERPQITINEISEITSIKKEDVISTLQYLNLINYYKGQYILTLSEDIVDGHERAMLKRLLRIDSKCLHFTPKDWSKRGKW
T1 sequence (Q92794 507-778 A567V limits assumed): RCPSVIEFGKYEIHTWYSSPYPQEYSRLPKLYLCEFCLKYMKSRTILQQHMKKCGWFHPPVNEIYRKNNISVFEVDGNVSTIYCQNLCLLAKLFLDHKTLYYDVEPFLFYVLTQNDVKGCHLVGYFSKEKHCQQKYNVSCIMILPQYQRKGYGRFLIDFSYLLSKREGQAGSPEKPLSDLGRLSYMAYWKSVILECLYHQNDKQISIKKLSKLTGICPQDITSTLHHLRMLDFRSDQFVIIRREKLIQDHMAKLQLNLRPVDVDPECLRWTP

Row | Compound | IC50 (MOZ-KAT6A [1]) [µM] | IC50 [2] [µM] | IC50 (HBO-KAT7 [3]) [µM] | IC50 (MOF-KAT8 [4]) [µM] | IC50 (TIP60-KAT5 [5]) [µM] | IC50 (HBO-KAT7 [6]) [µM] | IC50 (TIP60-KAT5 [7]) [µM] | IC50 (MOF-KAT8 [8]) [µM] | IC50 (MOZ-KAT6A [9]) [µM] | IC50 [10] [µM] | IC50 [11] [µM]
1 | O=C(NCC(O)c1ccccc1OC(F)F)C1=Nc2ccc(I)cc2S(=O)(=O)N1 (stereo not shown) [Example 57, N-(2-(2-(difluoromethoxy)phenyl)-2-hydroxyethyl)-7-iodo-2H-benzo[e][1,2,4]thiadiazine-3-carboxamide 1,1-dioxide] | 0.403 | > 10 | 0.84 | 11.3 | 0.725 | 2.53 | 2.8 | – | – | – | –
2 | COc1ccccc1CCNC(=O)C1=Nc2ccc(I)cc2S(=O)(=O)N1 [Example 86] | 0.096 | – | 0.787 | 42.4 | 0.521 | 1.33 | 1.17 | 39.4 | 2.7 | – | –
3 | O=C(NCC(c1ccccc1)c1ncco1)C1=Nc2ccncc2S(=O)(=O)N1 (stereo not shown) [Example 97] | 0.417 | > 10 | – | – | 26.1 | 49.4 | > 125 | – | 4 | – | –
4 | COc1ccccc1C(CNC(=O)C1=Nc2ccc(Cl)cc2S(=O)(=O)N1)c1ncco1 (stereo not shown) [Example 178] | 0.021 | – | 0.112 | 61 | 0.852 | 0.571 | – | 106 | – | 20.5 | –
5 | CNC(=O)CCCOC(=O)C(CNC(=O)C1=Nc2ccc(I)cc2S(=O)(=O)N1)c1ccccc1 (stereo not shown) [Example 180] | 0.229 | – | 0.557 | – | 0.249 | – | – | 77 | – | 37.5 | –
6 | CNC(=O)CCOC(=O)C(CNC(=O)C1=Nc2ccc(I)cc2S(=O)(=O)N1)c1ccccc1 (stereo not shown) [Example 183] | 0.044 | – | 0.718 | 30.5 | 0.068 | – | – | 36.3 | – | 33.2 | –
7 | COc1ccccc1C(CNC(=O)C1=Nc2ccc(I)cc2S(=O)(=O)N1)c1ncco1 (stereo not shown) [Example 184, 7-iodo-N-(2-(2-methoxyphenyl)-2-(oxazol-2-yl)ethyl)-2H-benzo[e][1,2,4]thiadiazine-3-carboxamide 1,1-dioxide] | 0.008 | – | 0.114 | 10.2 | 0.099 | – | – | 9.22 | – | 8.28 | –
8 | CS(=O)(=O)c1ccc2c(c1)S(=O)(=O)NC(C(=O)NCC(c1ccccc1)c1ncco1)=N2 (stereo not shown) [Example 191] | 0.043 | – | 0.243 | – | 0.919 | – | – | – | – | > 40 | –
9 | CC(O)c1ccc2c(c1)S(=O)(=O)NC(C(=O)NCC(c1ccccc1)c1ncco1)=N2 (stereo not shown) [Example 212, 7-(1-Hydroxyethyl)-N-(2-(oxazol-2-yl)-2-phenylethyl)-2H-benzo[e][1,2,4]thiadiazine-3-carboxamide 1,1-dioxide] | 0.241 | – | 1.09 | – | 4 | – | – | 40.8 | – | – | 4.15
10 | Cc1cccc(C(CNC(=O)C2=Nc3ccc(Cl)cc3S(=O)(=O)N2)c2ncco2)c1 (stereo not shown) [Example 234, 7-chloro-N-(2-(oxazol-2-yl)-2-(m-tolyl)ethyl)-2H-benzo[e][1,2,4]thiadiazine-3-carboxamide 1,1-dioxide] | 0.072 | – | 0.089 | 23.6 | 1.37 | – | – | 57.3 | – | 6.15 | –
11 | O=C(NCC(c1ncco1)c1ccccc1F)C1=Nc2ccc(I)cc2S(=O)(=O)N1 (stereo not shown) [Example 235, N-(2-(2-fluorophenyl)-2-(oxazol-2-yl)ethyl)-7-iodo-2H-benzo[e][1,2,4]thiadiazine-3-carboxamide 1,1-dioxide] | 0.009 | – | 0.115 | 3.23 | 0.034 | – | – | 6.59 | – | 1.08 | –
12 | O=C(NCC(c1ncco1)c1ccccc1F)C1=Nc2ccc(Cl)cc2S(=O)(=O)N1 (stereo not shown) [Example 236, 7-chloro-N-(2-(2-fluorophenyl)-2-(oxazol-2-yl)ethyl)-2H-benzo[e][1,2,4]thiadiazine-3-carboxamide 1,1-dioxide] | 0.01 | – | 0.073 | 19.6 | 0.113 | – | – | 20.2 | – | 7.85 | –
13 | O=C(NCCc1ccccc1-n1ccnn1)C1=Nc2ccc(I)cc2S(=O)(=O)N1 [Example 241, N-(2-(1H-1,2,3-triazol-1-yl)phenethyl)-7-iodo-2H-benzo[e][1,2,4]thiadiazine-3-carboxamide 1,1-dioxide] | 0.082 | – | 0.948 | – | 1.01 | – | – | – | – | > 40 | –
